Among the data in ChEMBL document CHEMBL6092180 (Eur J Med Chem, 2024) are MIC80 values, retold here.

In brackets after ≈: the same amount, converted by molar mass.

What is called MIC80 is an inhibitory concentration at the 80% level, which refers to growth in some studies and to a panel of isolates in others.

Holding throughout (assay type): functional
Test [1] deals with Candida albicans. Description: Antifungal activity against fluconazole and iodiconazole resistant Candida albicans clinical isolate 17# assessed as inhibition of fungal growth by CLSI M27-A3 guidelines based method.
Test [2] deals with Nakaseomyces glabratus. Briefly: Antifungal activity against Candida glabrata assessed as inhibition of fungal growth by CLSI M27-A3 guidelines based method.
The test system of test [3] is Candida parapsilosis. Briefly: Antifungal activity against Candida parapsilosis GIM 2.190 assessed as inhibition of fungal growth by CLSI M27-A3 guidelines based method. The following applies: Lodderomyces parapsilosis.
The test system of test [4] is Pichia kudriavzevii. Description: Antifungal activity against Candida krusei GIM 2.1 assessed as inhibition of fungal growth by CLSI M27-A3 guidelines based method.
Test [5] relates to Candida albicans. Briefly: Antifungal activity against fluconazole-resistant Candida albicans clinical isolate 311 assessed as inhibition of fungal growth by CLSI M27-A3 guidelines based method.
For test [6], the system named is Candida albicans. Description: Antifungal activity against fluconazole-resistant Candida albicans clinical isolate 904 assessed as inhibition of fungal growth by CLSI M27-A3 guidelines based method.
Test [7] has as its system Candida albicans. Briefly: Antifungal activity against Candida albicans GIM 2.194 assessed as inhibition of fungal growth by CLSI M27-A3 guidelines based method.
Test [8] deals with Candida albicans. Description: Antifungal activity against fluconazole-resistant Candida albicans clinical isolate 901 assessed as inhibition of fungal growth by CLSI M27-A3 guidelines based method.
For test [9], the system named is Candida albicans. Description: Antifungal activity against fluconazole-resistant Candida albicans clinical isolate 100 assessed as inhibition of fungal growth by CLSI M27-A3 guidelines based method.
For test [10], the system named is Candida albicans. Description: Antifungal activity against fluconazole-resistant Candida albicans clinical isolate 103 assessed as inhibition of fungal growth by CLSI M27-A3 guidelines based method.
The subject of test [11] is Candida albicans. Description: Antifungal activity against fluconazole-resistant Candida albicans CaR assessed as inhibition of fungal growth by CLSI M27-A3 guidelines based method.
Test [12] deals with Cryptococcus neoformans. Briefly: Antifungal activity against Cryptococcus neoformans CGMCC 2.3161 assessed as inhibition of fungal growth by CLSI M27-A3 guidelines based method.
Test [13] concerns Candida albicans. Briefly: Antifungal activity against Candida albicans SC5314 assessed as inhibition of fungal growth by CLSI M27-A3 guidelines based method.
The test system of test [14] is Candida tropicalis. Briefly: Antifungal activity against Candida tropicalis GIM 2.183 assessed as inhibition of fungal growth by CLSI M27-A3 guidelines based method.
Test [15] deals with Candida albicans. Description: Antifungal activity against fluconazole-resistant Candida albicans clinical isolate 632 assessed as inhibition of fungal growth by CLSI M27-A3 guidelines based method.
Test [16] concerns Aspergillus fumigatus. Description: Antifungal activity against Aspergillus fumigatus cgmcc 3.7795 assessed as inhibition of fungal growth by CLSI M27-A3 guidelines based method.

Take `C[C@@H](N(C)Cc1ccc(C#Cc2ccc(F)c(F)c2)cc1)[C@](O)(Cn1cncn1)c1ccc(F)cc1F`: the MIC80 in [1] was 0.5 µg/mL (≈ 0.983 µM); in [2], 0.05 µg/mL (≈ 0.0983 µM); in test [3] it was 0.006 µg/mL (≈ 0.0118 µM); in test [4] it was 0.03 µg/mL (≈ 0.059 µM); in test [5], 8 µg/mL (≈ 15.7 µM); in [6], 16 µg/mL (≈ 31.5 µM). Also, the MIC80 was 0.025 µg/mL (≈ 0.0492 µM) in test [7]; 8 µg/mL (≈ 15.7 µM) in test [8]; 8 µg/mL (≈ 15.7 µM) in test [9]; 8 µg/mL (≈ 15.7 µM) in [10]; 0.25 µg/mL (≈ 0.492 µM) in test [11]; 0.05 µg/mL (≈ 0.0983 µM) in [12]. For the same molecule, the MIC80 in [13] is 0.013 µg/mL (≈ 0.0256 µM); in test [14], 0.006 µg/mL (≈ 0.0118 µM); in [15], 4 µg/mL (≈ 7.87 µM); in test [16], 0.1 µg/mL (≈ 0.197 µM).
As to `CC(=O)c1ccc(C#Cc2ccc(CN(C)[C@H](C)[C@](O)(Cn3cncn3)c3ccc(F)cc3F)cc2)cc1`, the MIC80 came out at 0.5 µg/mL (≈ 0.972 µM) in test [1]; 0.01 µg/mL (≈ 0.0194 µM) in test [2]; 0.006 µg/mL (≈ 0.0117 µM) in test [3]; 0.01 µg/mL (≈ 0.0194 µM) in [4]; 16 µg/mL (≈ 31.1 µM) in test [5]; 16 µg/mL (≈ 31.1 µM) in test [6]. Moreover, the MIC80 came to 0.013 µg/mL (≈ 0.0253 µM) in test [7]; 8 µg/mL (≈ 15.5 µM) in [8]; 16 µg/mL (≈ 31.1 µM) in [9]; 16 µg/mL (≈ 31.1 µM) in test [10]; 0.25 µg/mL (≈ 0.486 µM) in test [11]; 0.013 µg/mL (≈ 0.0253 µM) in test [12]. Also, the MIC80 in test [13] came out at 0.013 µg/mL (≈ 0.0253 µM); in [14], 0.006 µg/mL (≈ 0.0117 µM); in test [15], 4 µg/mL (≈ 7.77 µM); in test [16] it was 0.1 µg/mL (≈ 0.194 µM).
As for `C[C@@H](N(C)Cc1ccc(C#Cc2ccc(C#N)cc2)cc1)[C@](O)(Cn1cncn1)c1ccc(F)cc1F`, the MIC80 in test [1] turned out to be 0.25 µg/mL (≈ 0.502 µM); in test [2], 0.01 µg/mL (≈ 0.0201 µM); in test [3] it was 0.006 µg/mL (≈ 0.0121 µM); in test [4], 0.01 µg/mL (≈ 0.0201 µM); in [5], 32 µg/mL (≈ 64.3 µM); in [6], 32 µg/mL (≈ 64.3 µM). For the same molecule, the MIC80 is 0.006 µg/mL (≈ 0.0121 µM) in [7]; 8 µg/mL (≈ 16.1 µM) in test [8]; 16 µg/mL (≈ 32.2 µM) in [9]; 8 µg/mL (≈ 16.1 µM) in test [10]; 0.5 µg/mL (≈ 1 µM) in [11]; 0.006 µg/mL (≈ 0.0121 µM) in [12]. The MIC80 in test [13] came out at 0.006 µg/mL (≈ 0.0121 µM); in [14], 0.006 µg/mL (≈ 0.0121 µM); in test [15], 8 µg/mL (≈ 16.1 µM); in [16], 0.05 µg/mL (≈ 0.1 µM).
On to `C[C@@H](N(C)Cc1ccc(C#Cc2ccc([N+](=O)[O-])cc2)cc1)[C@](O)(Cn1cncn1)c1ccc(F)cc1F`, for which the MIC80 came to 0.5 µg/mL (≈ 0.966 µM) in test [1]; 0.01 µg/mL (≈ 0.0193 µM) in test [2]; 0.006 µg/mL (≈ 0.0116 µM) in test [3]; 0.01 µg/mL (≈ 0.0193 µM) in test [4]; 16 µg/mL (≈ 30.9 µM) in test [5]; 32 µg/mL (≈ 61.8 µM) in [6]. Moreover, the MIC80 is 0.006 µg/mL (≈ 0.0116 µM) in test [7]; 8 µg/mL (≈ 15.5 µM) in test [8]; 16 µg/mL (≈ 30.9 µM) in [9]; 8 µg/mL (≈ 15.5 µM) in [10]; 0.25 µg/mL (≈ 0.483 µM) in [11]; 0.013 µg/mL (≈ 0.0251 µM) in test [12]. In addition, the MIC80 amounted to 0.013 µg/mL (≈ 0.0251 µM) in test [13], 0.006 µg/mL (≈ 0.0116 µM) in test [14], 4 µg/mL (≈ 7.73 µM) in test [15] and 0.05 µg/mL (≈ 0.0966 µM) in test [16].
As for `C[C@@H](N(C)Cc1ccc(C#Cc2cc(F)c(F)cc2F)cc1)[C@](O)(Cn1cncn1)c1ccc(F)cc1F`, the MIC80 came to 2 µg/mL (≈ 3.8 µM) in test [1]; 0.05 µg/mL (≈ 0.095 µM) in test [2]; 0.006 µg/mL (≈ 0.0114 µM) in test [3]; 0.05 µg/mL (≈ 0.095 µM) in test [4]; 16 µg/mL (≈ 30.4 µM) in [5]; 32 µg/mL (≈ 60.8 µM) in test [6]. Moreover, the MIC80 stood at 0.025 µg/mL (≈ 0.0475 µM) in [7]; 8 µg/mL (≈ 15.2 µM) in [8]; 8 µg/mL (≈ 15.2 µM) in test [9]; 8 µg/mL (≈ 15.2 µM) in [10]; 1 µg/mL (≈ 1.9 µM) in test [11]; 0.025 µg/mL (≈ 0.0475 µM) in test [12]. Besides, the MIC80 was found to be 0.013 µg/mL (≈ 0.0247 µM) in [13], 0.006 µg/mL (≈ 0.0114 µM) in [14], 4 µg/mL (≈ 7.6 µM) in [15] and 0.2 µg/mL (≈ 0.38 µM) in test [16].
